The source of these data is US20240240224A1, “FLUORESCENT D-TYPE AMINO ACID METABOLISM MARKER-BASED METHOD FOR DETECTING ANTIBACTERIAL DRUG SENSITIVITY TEST” (priority 2020, published 2024).

In brackets after ≈: the same amount, converted by molar mass.

Test [1] concerns E. coli Ec11. Briefly: BMD susceptibility test. In kind it is cell-based, Escherichia coli. The settings on record: unit assumed.
In test [2] the test system is E. coli Ec11. Briefly: FaAST (FDAA metabolic labeling). The format is cell-based, Escherichia coli. The note with it: unit assumed. The procedure: (§1) The specific experimental steps are as follows: • 1. Take the colony to be tested that has been cultured overnight on the plate and fully mix it in normal saline to make a uniform bacterial solution. Dilute it into CAMHB medium to make a bacterial solution with OD600=0.05. • 2. Add 45 μl antibiotic solutions to be tested of different concentrations to 96-well plates (see Table 3 for antibiotic concentration gradient settings). • 3. Add 50 μl of bacterial solution prepared in Step 1 to the 96-well plate and mix well. • 4.5 μl of 10 mM Cy5-DAA probe was added to each well (final concentration was 0.15 mM, and its structure was shown in FIG. 1). After mixing, the probe was incubated for 2 hours in the dark. • 5. After dilution with 200 μl PBS solution, the fluorescence intensity of each sample was detected by flow cytometry. The flow detection results are shown in the attached FIG. 4-5, showing the curve of antibiotic concentration gradient and fluorescence intensity, and the MIC (minimum inhibitory concentration) is obtained by referring to this curve.
(§2) Antibiotic resistant strains are shown in bold in the table below.

Test [3] has as its system Ec ATCC 25922. Briefly: FaAST (FDAA metabolic labeling). The format is cell-based, Escherichia coli. The note with it: unit assumed. The procedure:
as §1, §2

Test [4] deals with Ec ATCC 25922. Briefly: BMD susceptibility test. In kind it is cell-based, Escherichia coli. The note with it: unit assumed.
The test system of test [5] is K. pneumoniae Kp6. Briefly: BMD susceptibility test. In kind it is cell-based, Klebsiella pneumoniae. The note with it: unit assumed.
Test [6] concerns K. pneumoniae Kp6. Briefly: FaAST (FDAA metabolic labeling). In kind it is cell-based, Klebsiella pneumoniae. The note with it: unit assumed. The procedure:
as §1, with “cytometry.” for “cytometry. The flow detection results are shown in the attached FIG. 4-5, showing the curve of antibiotic concentration gradient and fluorescence intensity, and the MIC (minimum inhibitory concentration) is obtained by referring to this curve.”

Test [7] relates to Ec ATCC 25922. The note with it: cited from earlier work.
Test [8] has as its system S. aureus ST398. Briefly: FDAA metabolic labeling susceptibility test (Cy5-DAA probe, flow cytometry). In kind it is cell-based. The note with it: Staphylococcus aureus; S. aureus ST398; Cy5-DAA probe, 2 hours; read-out: MIC, FDAA. The procedure:
(§3) Take the colony to be tested that has been cultured overnight on the plate and fully mix it in normal saline to make a uniform bacterial solution. Dilute it into Cation-Adjusted Mueller Hinton Broth (CAMHB) culture medium to make a bacterial solution with OD600=0.05. • 2. Add 45 μl antibiotic solutions of different concentrations to 96-well plates (see Table 1 for antibiotic concentration gradient settings). • 3. Add 50 μl of the bacterial solution prepared in step 1 to the 96-well plate and mix well. • 4. Add 5 μl of 10 mM Cy5-DAA probe (final concentration 0.15 mM, see FIG. 1 for its structure) into each well, mix well, and cultivate in dark for 2 hours. • 5. Add 200 μl After PBS solution is diluted, the fluorescence intensity of each sample is detected by flow cytometry. The flow detection results are shown in FIG. 4-5, showing the curve of the change of antibiotic concentration gradient and fluorescence intensity. The MIC (minimum inhibitory concentration) can be obtained by referring to this curve.
On the technique in general: Flow cytometry measures light scatter and fluorescence of single cells or particles in a stream.

Test [9] relates to S. aureus ST59. The test is described as above. The format is cell-based. The settings on record: Staphylococcus aureus; S. aureus ST59; Cy5-DAA probe, 2 hours; read-out: MIC, FDAA. The procedure: as §3
The subject of test [10] is S. aureus ST59. Briefly: Vitek 2 drug sensitivity test. The format is cell-based, Staphylococcus aureus.
The subject of test [11] is S. aureus ST398. Briefly: Vitek 2 drug sensitivity test. In kind it is cell-based, Staphylococcus aureus.
Test [12] concerns E. faecium Ef26. Briefly: BMD susceptibility test. In kind it is cell-based, Enterococcus faecium. The note with it: unit assumed.
Test [13] relates to E. faecium Ef26. Briefly: FaAST (FDAA metabolic labeling method). In kind it is cell-based, Enterococcus faecium. The settings on record: unit assumed. The procedure:
as §3
(§4) Bacteria with antibiotic resistance are shown in bold in the following table.

Test [14] has as its system E. faecalis ATCC29212. Briefly: BMD susceptibility test. In kind it is cell-based, Enterococcus faecalis. The settings on record: unit assumed.
In test [15] the test system is E. faecalis ATCC29212. Briefly: FaAST (FDAA metabolic labeling method). In kind it is cell-based, Enterococcus faecalis. The note with it: unit assumed. The procedure: as §3, §4
Test [16] deals with E. faecalis ATCC29212. The note with it: cited from earlier work.
Test [17] has as its system alveolar lavage fluid sample 0130, A. baumannii. Briefly: BMD susceptibility test of patient alveolar lavage fluid. The settings on record: unit assumed. The format is cell-based, Acinetobacter baumannii. An excerpt:
(§5) The results of antimicrobial susceptibility test of alveolar lavage fluid of seven patients using FDAA and BMD methods are shown in the following table. The drug-resistant bacteria are shown in bold.

For test [18], the system named is alveolar lavage fluid sample 0206, A. baumannii. Described as above. The format is cell-based, Acinetobacter baumannii. The note with it: unit assumed.
From the text: as §5

The subject of test [19] is alveolar lavage fluid sample 0219, A. baumannii. The description is as above. The format is cell-based, Acinetobacter baumannii. The settings on record: unit assumed.
From the text: as §5

Test [20] concerns alveolar lavage fluid sample 0130, A. baumannii. Briefly: FaAST (FDAA) susceptibility test of patient alveolar lavage fluid. In kind it is cell-based, Acinetobacter baumannii. The note with it: unit assumed. The procedure: (§6) With reference to the flow chart of the rapid detection method of antimicrobial susceptibility test based on FDAA metabolic markers shown in FIG. 3, FDAA is used for the detection of antimicrobial susceptibility test of alveolar lavage fluid. The specific experimental steps are as follows: • 1. Mix bronchoalveolar lavage fluid (BALF, 10 ml) of patients with hospital acquired pneumonia with cation regulated broth medium (CAMHB, 10 ml) of twice the concentration to prepare the bacterial fluid to be tested. • 2. Add 45 μl antibiotic solutions of different concentrations to the 96-well plate separately (see Table 1 for antibiotic concentration gradient settings). • 3. Add 50 μl of the bacterial solution prepared in step 1 to the 96-well plate and mix well. • 4. Add 5 μl of 10 mM Cy5-DAA probe (final concentration 0.15 mM, see FIG. 1 for its structure) into each well, mix well, and then cultivate in dark for 2 hours. • 5. Add 200 μl PBS solution for dilution, and then use flow cytometry to detect the fluorescence intensity of each sample.
as §5

The subject of test [21] is alveolar lavage fluid sample 0204, A. baumannii. The test is described as above. In kind it is cell-based, Acinetobacter baumannii. The settings on record: unit assumed. The procedure: as §6, §5
Test [22] has as its system alveolar lavage fluid sample 0206, A. baumannii. The test is described as above. The format is cell-based, Acinetobacter baumannii. The settings on record: unit assumed. The procedure: as §6, §5
The test system of test [23] is alveolar lavage fluid sample 0219, A. baumannii. The test is described as above. The format is cell-based, Acinetobacter baumannii. The settings on record: unit assumed. The procedure:
as §6, §5

Test [24] concerns alveolar lavage fluid sample 0204, A. baumannii. Briefly: BMD susceptibility test of patient alveolar lavage fluid. In kind it is cell-based, Acinetobacter baumannii. The settings on record: unit assumed.
Test [25] deals with alveolar lavage fluid sample 0203, K. pneumoniae. Described as above. The format is cell-based, Klebsiella pneumoniae. The settings on record: unit assumed.
From the text: as §5

Test [26] has as its system alveolar lavage fluid sample 0226, K. pneumoniae. The test is described as above. The note with it: unit assumed. In kind it is cell-based, Klebsiella pneumoniae.
From the text: as §5

Test [27] has as its system alveolar lavage fluid sample 0203, K. pneumoniae. Briefly: FaAST (FDAA) susceptibility test of patient alveolar lavage fluid. The settings on record: unit assumed. The format is cell-based, Klebsiella pneumoniae. The procedure: as §6, §5
For test [28], the system named is alveolar lavage fluid sample 0226, K. pneumoniae. The description is as above. The format is cell-based, Klebsiella pneumoniae. The settings on record: unit assumed. The procedure:
as §6, §5

Test [29] has as its system E. coli Ec13. Briefly: BMD susceptibility test. The settings on record: unit assumed. The format is cell-based, Escherichia coli.
The test system of test [30] is E. coli Ec13. Briefly: FaAST (FDAA metabolic labeling). In kind it is cell-based, Escherichia coli. The settings on record: unit assumed. The procedure: as §1, with “cytometry.” for “cytometry. The flow detection results are shown in the attached FIG. 4-5, showing the curve of antibiotic concentration gradient and fluorescence intensity, and the MIC (minimum inhibitory concentration) is obtained by referring to this curve.”

Test [31] relates to K. pneumoniae Kp9. Briefly: BMD susceptibility test. In kind it is cell-based, Klebsiella pneumoniae. The note with it: unit assumed.
Test [32] has as its system K. pneumoniae Kp9. Briefly: FaAST (FDAA metabolic labeling). The format is cell-based, Klebsiella pneumoniae. The note with it: unit assumed. The procedure: as §1, with “cytometry.” for “cytometry. The flow detection results are shown in the attached FIG. 4-5, showing the curve of antibiotic concentration gradient and fluorescence intensity, and the MIC (minimum inhibitory concentration) is obtained by referring to this curve.”
For Sensibility in this document: key: S: Drug sensitive; R: Drug resistance.

In the case of `CO/N=C(\C(=O)N[C@@H]1C(=O)N2C(C(=O)O)=C(COC(N)=O)CS[C@H]12)c1ccco1` [Cefuroxime], the values for the BMD (MIC) in the test on E. coli Ec11 [1], in the test on Ec ATCC 25922 [4] and in the test with K. pneumoniae Kp6 [5] were 4 µg/mL, 4 µg/mL and 2 µg/mL, respectively. The values for the FaAST (MIC) in the test with E. coli Ec11 [2], with Ec ATCC 25922 [3] and in the test with K. pneumoniae Kp6 [6] were 8 µg/mL, 8 µg/mL and 4 µg/mL, respectively. In the test with Ec ATCC 25922 [7], the “CLSI QC range” value is reported as 2-8.

On to `CC[C@H]1OC(=O)[C@H](C)[C@@H](O[C@H]2C[C@@](C)(OC)[C@@H](O)[C@H](C)O2)[C@H](C)[C@@H](O[C@@H]2O[C@H](C)C[C@H](N(C)C)[C@H]2O)[C@](C)(O)C[C@@H](C)C(=O)[C@H](C)[C@@H](O)[C@]1(C)O` [Erythromycin, erythromycin], for which the MIC with S. aureus ST398 [8] was 0.5 µg/mL (≈ 0.681 µM); with S. aureus ST59 [9], 8 µg/mL (≈ 10.9 µM); against S. aureus ST59 [10] (Staphylococcus aureus) it was no less than 8 µg/mL; against S. aureus ST398 [11] (Staphylococcus aureus), no more than 0.25 µg/mL. In addition, the values for the Sensibility entry in the test with S. aureus ST59 [10] and in the test with S. aureus ST398 [11] were “R” and “S”, respectively. Besides, the BMD (MIC) in the test on E. faecium Ef26 [12] was no more than 0.25 µg/mL; in the test with E. faecalis ATCC29212 [14] it was 2 µg/mL. In addition, the FaAST (MIC) with E. faecium Ef26 [13] is no more than 0.25 µg/mL; in the test on E. faecalis ATCC29212 [15] it was 2 µg/mL. For the same compound, the “CLSI QC range” value with E. faecalis ATCC29212 [16] is reported as 1-4.

Consider `C[C@@H](O)[C@H]1C(=O)N2C(C(=O)O)=C(S[C@@H]3CN[C@H](C(=O)N(C)C)C3)[C@H](C)[C@H]12` [Meropenem], for which the BMD (MIC) amounted to 64 µg/mL in test [17]; 32 µg/mL in test [18]; 32 µg/mL in test [19]; 0.5 µg/mL in [24]; 0.25 µg/mL in test [25]; 0.25 µg/mL in test [26]. Besides, the FaAST (MIC) in test [20] amounted to 32 µg/mL; in [21] it was 4 µg/mL; in test [22] it was 32 µg/mL; in test [23] it was 64 µg/mL; in test [27], 0.25 µg/mL; in test [28] it was 0.25 µg/mL.

For the compound `CC1(C)S[C@@H]2[C@H](NC(=O)Cc3ccccc3)C(=O)N2[C@H]1C(=O)O` [Penicillin G, penicillin G], the BMD (MIC) was 64 µg/mL in the test with E. faecium Ef26 [12] and 2 µg/mL in the test on E. faecalis ATCC29212 [14]. Further, the FaAST (MIC) amounted to 32 µg/mL in the test on E. faecium Ef26 [13] and 4 µg/mL in the test on E. faecalis ATCC29212 [15]. In the test with E. faecalis ATCC29212 [16], the “CLSI QC range” value is reported as 1-4.

On to Polymyxin B, for which the BMD (MIC) with E. coli Ec11 [1] is 2 µg/mL; in the test on E. coli Ec13 [29], 8 µg/mL; with Ec ATCC 25922 [4], 2 µg/mL; in the test on K. pneumoniae Kp6 [5], 0.5 µg/mL; in the test on K. pneumoniae Kp9 [31], 16 µg/mL. The FaAST (MIC) in the test with E. coli Ec11 [2] came out at 2 µg/mL; with Ec ATCC 25922 [3], 2 µg/mL; with E. coli Ec13 [30], 8 µg/mL; in the test with K. pneumoniae Kp6 [6], 1 µg/mL; with K. pneumoniae Kp9 [32], 32 µg/mL. The “CLSI QC range” value in the test on Ec ATCC 25922 [7] was 0.25-2.

As usually defined, the MIC is the least concentration at which growth counts as inhibited.
